Results as given in the NIST ThermoML archive (doi:10.1021/je060271a).
Where “and” joins values, the source holds several entries; their conditions need not be identical. Equal entries are not always repeated.

Settings: Liquid, Vibrating tube method

CCCCCC(=O)OCC(COC(=O)CCCCC)(COC(=O)CCCCC)COC(=O)CCCCC [pentaerythritol tetrahexanoate]
Settings	mass density
303.16 K, 32343 kPa	1007.5 kg/m3
303.16 K, 32366 kPa	1007.5 kg/m3
303.16 K, 32385 kPa	1007.4 kg/m3
303.16 K, 32914 kPa	1007.8 kg/m3
303.16 K, 32937 kPa	1007.9 kg/m3
303.16 K, 32956 kPa	1007.7 kg/m3
303.16 K, 32976 kPa	1007.7 kg/m3
303.16 K, 33185 kPa	1007.9 kg/m3
303.16 K, 33209 kPa	1008 kg/m3
303.16 K, 33228 kPa	1008 kg/m3
303.16 K, 33252 kPa	1007.9 kg/m3
303.16 K, 33272 kPa	1008.1 kg/m3
303.16 K, 33292 kPa	1008 kg/m3
303.16 K, 33317 kPa	1007.9 kg/m3
303.16 K, 33337 kPa	1008.1 kg/m3
303.16 K, 33357 kPa	1008.1 kg/m3
303.16 K, 33377 kPa	1008.1 kg/m3
303.16 K, 33402 kPa	1008.1 kg/m3
303.16 K, 33423 kPa	1008 kg/m3
303.16 K, 33443 kPa	1008.1 kg/m3
303.16 K, 33467 kPa	1008.1 kg/m3
303.16 K, 33487 kPa	1008.1 kg/m3
303.16 K, 33512 kPa	1008.1 kg/m3
303.16 K, 33533 kPa	1008.1 kg/m3
303.16 K, 33553 kPa	1008.1 kg/m3
303.16 K, 33574 kPa	1008.3 kg/m3
303.16 K, 33599 kPa	1008.2 kg/m3
303.16 K, 33621 kPa	1008.2 kg/m3
303.16 K, 33642 kPa	1008.3 kg/m3
303.16 K, 33668 kPa	1008.3 kg/m3
303.16 K, 33689 kPa	1008.3 kg/m3
303.16 K, 33711 kPa	1008.2 kg/m3
303.16 K, 33733 kPa	1008.1 kg/m3
303.16 K, 33759 kPa	1008.2 kg/m3
303.16 K, 33782 kPa	1008.3 kg/m3
303.16 K, 33805 kPa	1008.2 kg/m3
303.16 K, 33833 kPa	1008.2 kg/m3
303.16 K, 33857 kPa	1008.4 kg/m3
303.16 K, 33886 kPa	1008.2 kg/m3
303.17 K, 238.4 kPa	988.6 kg/m3
303.17 K, 238.6 kPa	988.5 kg/m3
303.17 K, 239.1 kPa	988.5 kg/m3
303.17 K, 272.8 kPa	988.5 kg/m3
303.17 K, 273 kPa	988.7 kg/m3
303.17 K, 273.3 kPa	988.6 kg/m3
303.17 K, 273.5 kPa	988.6 kg/m3
303.17 K, 273.6 kPa	988.6 kg/m3
303.17 K, 355.5 kPa	988.6 kg/m3
303.17 K, 355.8 kPa	988.5 kg/m3
303.17 K, 356.5 kPa	988.6 kg/m3
303.17 K, 356.8 kPa	988.5 kg/m3
303.17 K, 357.2 kPa	988.6 kg/m3
303.17 K, 357.5 kPa	988.6 kg/m3
303.17 K, 361 kPa	988.7 kg/m3
303.17 K, 361.7 kPa	988.5 kg/m3
303.17 K, 362 kPa	988.6 kg/m3
303.17 K, 362.4 kPa	988.5 kg/m3
303.17 K, 362.7 kPa	988.6 kg/m3
303.17 K, 363.1 kPa	988.6 kg/m3
303.17 K, 363.8 kPa	988.7 kg/m3
303.17 K, 364 kPa	988.7 kg/m3
303.17 K, 375.4 kPa	988.5 kg/m3
303.17 K, 376.3 kPa	988.6 kg/m3
303.17 K, 376.5 kPa	988.7 kg/m3 and 988.6 kg/m3
303.17 K, 377.2 kPa	988.6 kg/m3
303.17 K, 378.5 kPa	988.6 kg/m3
303.17 K, 1469.1 kPa	989.4 kg/m3
303.17 K, 1484.4 kPa	989.2 kg/m3
303.17 K, 1497.4 kPa	989.2 kg/m3
303.17 K, 1510.5 kPa	989.4 kg/m3
303.17 K, 1526.6 kPa	989.4 kg/m3
303.17 K, 1540 kPa	989.3 kg/m3
303.17 K, 1553.5 kPa	989.4 kg/m3
